# From ChEMBL document CHEMBL6153107, “Derailment of the Biosynthesis via an Acid-Mediated Intramolecular Cyclo-rearrangement Leads to a Novel Cytochalasin Skeleton” (J Nat Prod, 2025)
# Calls of active or inactive are those of the source. The calls are words filed in the database; no cut-off is given here.
# Tests used:
# [1] = system: HeLa; assay: Cytotoxicity against human HeLa cells assessed as inhibition of cell growth incubated for 48 hrs by DAPI staining based high-content imaging analysis; type: functional
# [2] = system: RKO; assay: Cytotoxicity against human RKO cells assessed as inhibition of cell growth incubated for 48 hrs by DAPI staining based high-content imaging analysis; type: functional
# [3] = system: HeLa; assay: Induction of cell cycle arrest in human HeLa cells assessed as accumulation of cells G2/M phase incubated for 48 hrs by DAPI staining based high-content imaging analysis; type: functional
# [4] = system: RKO; assay: Induction of cell cycle arrest in human RKO cells assessed as accumulation of cells at G2/M phase incubated for 48 hrs by DAPI staining based high-content imaging analysis; type: functional
# [5] = system: HeLa; assay: Binding affinity to F-actin in human HeLa cells assessed as disruption of cytoskeleton organization by measuring transforming regular fibrous into punctuate structure at 50 uM incubated for 48 hrs by tetramethylrhodamine-phalloidin staining based confocal laser scanning microscopy; type: cell-based
# [6] = system: RKO; assay: Binding affinity to F-actin in human RKO cells assessed as disruption of cytoskeleton organization by measuring transforming regular fibrous into punctuate structure at 50 uM incubated for 48 hrs by tetramethylrhodamine-phalloidin staining based confocal laser scanning microscopy; type: cell-based
# [7] = system: HeLa; assay: Binding affinity to F-actin in human HeLa cells assessed as disruption of cytoskeleton organization by measuring transforming regular fibrous into punctuate structure at 0.9 uM incubated for 48 hrs by tetramethylrhodamine-phalloidin staining based confocal laser scanning microscopy; type: cell-based
# [8] = system: RKO; assay: Binding affinity to F-actin in human RKO cells assessed as disruption of cytoskeleton organization by measuring transforming regular fibrous into punctuate structure at 0.8 uM incubated for 48 hrs by tetramethylrhodamine-phalloidin staining based confocal laser scanning microscopy; type: cell-based
# [9] = system: RKO; assay: Binding affinity to F-actin in human RKO cells assessed as disruption of cytoskeleton organization by measuring transforming regular fibrous into punctuate structure at 33.5 uM incubated for 48 hrs by tetramethylrhodamine-phalloidin staining based confocal laser scanning microscopy; type: cell-based
# [10] = system: HeLa; assay: Binding affinity to F-actin in human HeLa cells assessed as disruption of cytoskeleton organization by measuring transforming regular fibrous into punctuate structure at 12.3 uM incubated for 48 hrs by tetramethylrhodamine-phalloidin staining based confocal laser scanning microscopy; type: cell-based
# [11] = system: RKO; assay: Binding affinity to F-actin in human RKO cells assessed as disruption of cytoskeleton organization by measuring transforming regular fibrous into punctuate structure at 11.1 uM incubated for 48 hrs by tetramethylrhodamine-phalloidin staining based confocal laser scanning microscopy; type: cell-based
# [12] = system: HeLa; assay: Binding affinity to F-actin in human HeLa cells assessed as disruption of cytoskeleton organization by measuring transforming regular fibrous into punctuate structure at 27.8 uM incubated for 48 hrs by tetramethylrhodamine-phalloidin staining based confocal laser scanning microscopy; type: cell-based
# [13] = system: RKO; assay: Binding affinity to F-actin in human RKO cells assessed as disruption of cytoskeleton organization by measuring transforming regular fibrous into punctuate structure at 16.7 uM incubated for 48 hrs by tetramethylrhodamine-phalloidin staining based confocal laser scanning microscopy; type: cell-based
# [14] = system: HeLa; assay: Binding affinity to F-actin in human HeLa cells assessed as disruption of cytoskeleton organization by measuring transforming regular fibrous into punctuate structure at 2 uM incubated for 48 hrs by tetramethylrhodamine-phalloidin staining based confocal laser scanning microscopy; type: cell-based
# [15] = system: RKO; assay: Binding affinity to F-actin in human RKO cells assessed as disruption of cytoskeleton organization by measuring transforming regular fibrous into punctuate structure at 1.6 uM incubated for 48 hrs by tetramethylrhodamine-phalloidin staining based confocal laser scanning microscopy; type: cell-based
SMILES,IC50 [1] [µM],IC50 [2] [µM],Activity [3],Activity [4],Activity [5],Activity [6],Activity [7],Activity [8],Activity [9],Activity [10],Activity [11],Activity [12],Activity [13],Activity [14],Activity [15]
CC1=C[C@@H]2[C@@H]3[C@H](/C=C(/C)C[C@@H](C)C[C@H]3O)[C@@H](O)[C@]23C(=O)N[C@@H](Cc2ccccc2)[C@@H]3[C@@H]1C,> 50,45.2,Dose-dependent-effect,Dose-dependent-effect,Active,Active,–,–,–,–,–,–,–,–,–
C=C1[C@@H](C)[C@H]2[C@H](Cc3ccccc3)NC(=O)[C@]23[C@H](OC(C)=O)/C=C/[C@](C)(O)C[C@@H](C)C/C=C/[C@H]3[C@@H]1O,0.9,0.8,Dose-dependent-effect,Dose-dependent-effect,–,–,Active,Active,–,–,–,–,–,–,–
CC1=C[C@@H]2[C@@H](C[C@H](C)C1)[C@@H](O)[C@H]1C=C(C)[C@@H](C)[C@H]3[C@H](Cc4ccccc4)NC(=O)[C@]31[C@@H]2O,> 50,47.3,Dose-dependent-effect,Dose-dependent-effect,Active,Active,–,–,–,–,–,–,–,–,–
CC1=C[C@@H]2/C=C/C[C@H](C)C[C@@](C)(O)/C=C/[C@@H](O)[C@]23C(=O)N[C@@H](Cc2ccccc2)[C@@H]3[C@@H]1C,> 50,33.5,Dose-dependent-effect,Dose-dependent-effect,Active,–,–,–,Active,–,–,–,–,–,–
CC(=O)O[C@@H]1/C=C/[C@](C)(O)C[C@@H](C)C/C=C/[C@H]2C=C(C)[C@@H](C)[C@H]3[C@H](Cc4ccccc4)NC(=O)[C@]321,12.3,11.1,Dose-dependent-effect,Dose-dependent-effect,–,–,–,–,–,Active,Active,–,–,–,–
CC1=C[C@H]2[C@H]3OC(=O)[C@@]24C(=N[C@@H](Cc2ccccc2)[C@@H]4[C@@H]1C)C[C@H]1[C@H]3C[C@H](C)C[C@@]1(C)O,27.8,16.7,Dose-dependent-effect,Dose-dependent-effect,–,–,–,–,–,–,–,Active,Active,–,–
CC1=C[C@@H]2/C=C/C[C@H](C)C[C@@](C)(O)/C=C/C(=O)[C@]23C(=O)N[C@@H](Cc2ccccc2)[C@@H]3[C@@H]1C,2,1.6,Dose-dependent-effect,Dose-dependent-effect,–,–,–,–,–,–,–,–,–,Active,Active
